Series [1] has as its system PARP cleavage in CAL27 cells. Description: Western blot of PARP cleavage. It is filed as cell-based, human. The note with it: Z-VAD-fmk 20 μM together with 15 μM garcinol and 5 μM cisplatin, 48 h. How it is done: Vehicle or drug-treated whole-cell extracts were lysed in lysis buffer [250 mM NaCl, 20 mM HEPES, 2 mM EDTA (pH 8.0), 0.5 mM EGTA, 0.1% Triton X-100, 1.5 μg/mL aprotinin, 1.5 μg/mL leupeptin, 1 mM phenylmethylsulfonylfluoride (PMSF), and 1.5 mM NaVO4]. Lysates were then spun at 13,300 rpm for 10 min to remove insoluble material and resolved on a 10% SDS gel. After electrophoresis, the proteins were electrotransferred to a nitrocellulose membrane (Bio-Rad), blocked with Blocking One (Nacalai Tesque, Inc.), and probed with antibodies of interest overnight at 4 °C. The blot was washed with TBS with 0.1% Tween-20, exposed to HRP-conjugated secondary antibodies for 1 h, and finally examined by chemiluminescence using Western Bright Sirius HRP substrate (Advansta).
Supplementary Figure 2: Z-VAD-fmk abrogates the garcinol-induced caspase-3 activation. CAL27 cells (5 × 10^5 cells/mL) were treated with 15 μM garcinol and/or 5 μM cisplatin for 48 h in the absence or presence of 20 μM Z-VAD-fmk, whole-cell extracts were prepared, separated by SDS-PAGE, and subjected to western blot against PARP antibody. The same blot was stripped and reprobed with β-actin antibody to verify equal protein loading.
(also on this page, place not known: www.impactjournals.com/oncotarget/ Oncotarget, Materials 2014 Supplementary Z-V AD-fmk 10 5 Z-V AD-fmk,) […]
For orientation: A western blot detects proteins with antibodies after separation by electrophoresis.

Series [2] concerns CAL27 xenografts. Kind of series: HNSCC xenograft mouse model, tumor volume. The note with it: 4 weeks, garcinol 0.5 mg/kg i.p. five times/week, cisplatin 2 mg/kg i.p. twice weekly. Type of series: in vivo, athymic nu/nu female mice. The method, then:
(§1) All procedures involving animals were reviewed and approved by NUS Institutional Animal Care and Use Committee. Six-week old athymic nu/nu female mice (Animal Resource Centre, Australia) were implanted subcutaneously in the right flank with CAL27 cells (3 × 10^6 cells/100 μL saline). When tumors have reached 0.25 cm in diameter, the mice were randomized into the following treatment groups (n = 5/group): (I) untreated control (0.1% DMSO, 100 μL daily); (II) garcinol (0.5 mg/kg body weight, suspended in 0.1% DMSO, intraperitoneal [i.p.] injection, five times/week); (III) cisplatin alone (2 mg/kg body weight, suspended in 0.1% DMSO, i.p. injection, twice/week); and (IV) combination (garcinol, 0.5 mg/kg body weight, i.p. injection, five times/week and cisplatin, 2 mg/kg body weight, i.p. injection, twice/week). Therapy was continued for 4 weeks, and the animals were euthanized 24 h after the last dose. Primary tumors were excised and the final tumor volume was calculated using the formula V = L × (W)^2/2 where L is the length and W is the width. Half of the tumor tissue was fixed in formalin and embedded in paraffin for immunohistochemistry (IHC) analysis. The other half was snap frozen in liquid nitrogen and stored at −80°C.

The nature of series [3]: Body weight during xenograft experiment. The settings on record: four week treatment; garcinol 0.5 mg/kg i.p. five times/week, alone or with cisplatin 2 mg/kg i.p. twice weekly. Type of series: in vivo, athymic nu/nu female mice. How it is done:
as §1

Series [4] concerns CAL27 cells. Kind of series: MTT cell viability assay. Type of series: cell-based. The note with it: Homo sapiens, CAL-27, CAL27, 72 h. The method, then:
The inhibitory effect of garcinol against HNSCC cell growth was determined by the MTT dye uptake method as described previously. Briefly, the cells (5 × 10^4 cells/mL) were incubated in triplicate in a 96-well plate in the presence or absence of different concentrations of garcinol in a final volume of 0.2 mL for indicated time intervals at 37 °C. Thereafter, 20 μL MTT solution (5 mg/mL in PBS) was added to each well. After a 2 h incubation at 37°C, 0.1 mL lysis buffer (20% SDS, 50% dimethylformamide) was added after removal of the medium, incubation was continued at 37°C for 1 h, and then the optical density (OD) at 570 nm was measured by the Safire2™ microplate reader (Tecan). […]
www.impactjournals.com/oncotarget/ Oncotarget, Supplementary Materials 2015 […]
Supplementary Figure 1: (A) Garcinol augments the cytotoxic effect of cisplatin in HNSCC cells. CAL27 cells (1 × 10^4 cells/well) were exposed for 48 h to different concentrations of garcinol and cisplatin, and their combination and then subjected to MTT assay to analyze the viability of tumor cells. (B) Assessment on the type of combination relationship was done using the method developed by Chou-Talalay multiple drug effect equation. The degree of synergy was assessed based on CI values, where CI values of > 1.0 implies antagonism, 1.0 implies additive and < 1.0 implies synergistic effect relationships. […]
Background: Formazan colour is commonly taken as a measure of viable cells.

Series [5] in a line: Pharmacokinetics study of garcinol in mice. Type of series: in vivo. The settings on record: nude, ip, mouse serum; for AUC: read-out: area under the serum concentration-time curve (AUC) at 8 h; for Cmax: read-out: peak serum concentration (Cmax); for Tmax: read-out: time of peak serum concentration post-dose. How it is done: Pharmacokinetics of garcinol was conducted in nude mice by i.p. injection at dose of 0.5 mg/kg or 2 mg/kg. The mice were allowed food and water ad libitum before pharmacokinetics experiment. About 150 μL of blood was taken from facial vein of mice at 10 min, 30 min, 1, 2, 4, 6, and 8 h post-dose. After centrifugation of blood samples at 14,000 rpm at 4°C for 10 min, mouse sera (the supernatant) were transferred into Eppendorf tube. 10 μL of each serum was processed by adding 3-folds excess of acetonitrile-containing isogarcinol, the internal standard followed by vortexing for 1 min. The tube was then centrifuged at 14,000 rpm at 4°C for 10 min. Then 30 μL of the supernatants were transferred into glass inserts (250 μL) with 70 μL of 10 mM ammonia acetate solution. 50 μL of processed serum samples were injected into LC-MS/MS which was carried out under negative electrospray ionization (ESI) and multiple reaction monitoring (MRM) mode. […] The daughter ion monitored for garcinol and isogarcinol was 409 and 335, respectively. SCIEX Analyst software (version 1.4.2) was used for data acquisition and analysis.

The test system of series [6] is UMSCC1 cells. Kind of series: MTT cell viability assay. Type of series: cell-based. The note with it: Homo sapiens, UMSCC1, 72 h. The method, then: (§2) The inhibitory effect of garcinol against HNSCC cell growth was determined by the MTT dye uptake method as described previously. Briefly, the cells (5 × 10^4 cells/mL) were incubated in triplicate in a 96-well plate in the presence or absence of different concentrations of garcinol in a final volume of 0.2 mL for indicated time intervals at 37 °C. Thereafter, 20 μL MTT solution (5 mg/mL in PBS) was added to each well. After a 2 h incubation at 37°C, 0.1 mL lysis buffer (20% SDS, 50% dimethylformamide) was added after removal of the medium, incubation was continued at 37°C for 1 h, and then the optical density (OD) at 570 nm was measured by the Safire2™ microplate reader (Tecan).

The test system of series [7] is MDA686LN cells. Description: MTT cell viability assay. The note with it: Homo sapiens, 72 h. It is filed as cell-based. How it is done: as §2
Series [8] relates to NF-κB-dependent reporter gene expression in MDA686Tu cells. Kind of series: NF-κB luciferase reporter assay. The note with it: 12 h. Type of series: cell-based, human. How it is done: MDA686Tu cells (1 × 10^4 cells/well) in 96-well were transfected of plasmid with NF-κB responsive […] elements linked to a luciferase reporter gene using lipofectamine® 2000. After transfection for 48 h, indicated concentrations of garcinol were added into the wells for 12 h. Luciferase activity was determined using Bright-Glo™ luciferase assay kit from Promega.
Background: Reporter assays use an easily measured gene product as a stand-in for the process of interest.

pIC50: −log10 of the molar value. Like-named read-outs stand apart in the source and are kept apart here. Peptide text beside a SMILES is read from it. * marks the point of attachment. Cbz = O=C(OCc1ccccc1)*; CH2F = FC*

For orientation: pIC50 means −log10 of the IC50, conventionally taken in molar units.

As to `COC(=O)C[C@H](NC(=O)[C@H](C)NC(=O)[C@@H](NC(=O)OCc1ccccc1)C(C)C)C(=O)CF` [Z-VAD-fmk] (Cbz-Val-Ala-Asp(OMe)-CH2F), the “effect on increased PARP cleavage” value in series [1] was “completely blocked”.

Consider `N.N.[Cl][Pt][Cl]` [cisplatin, cis-dichloro-diammineplatinum (II)], for which the “reduction of tumor volume” value in series [2] was 50%.

As for `C=C(C)[C@@H](CC=C(C)C)C[C@@]12C[C@@H](CC=C(C)C)C(C)(C)[C@@](CC=C(C)C)(C(=O)C(C(=O)c3ccc(O)c(O)c3)=C1O)C2=O` [garcinol], the “body weight of the animals” value in series [3] is recorded as “no significant loss of body weight”. In addition, the pIC50 in series [4] is 4.83; in series [6], 4.94; in series [7], 4.86. Besides, in series [2], the “reduction of tumor volume” value worked out at 50%. Also, the results for the AUC in series [5] (0.5 mg/kg i.p.) and in series [5] (2 mg/kg i.p.) were 4.3 µM·h and 16.9 µM·h, respectively. The Cmax in series [5] (0.5 mg/kg i.p.) worked out at 1.83 µM; in series [5] (2 mg/kg i.p.), 6.64 µM. The Tmax in series [5] (0.5 mg/kg i.p.) and in series [5] (2 mg/kg i.p.) was 30 min in each case. Further, the “NF-κB-dependent reporter gene expression” value in series [8] was “significantly abrogate”.
